Experimental data from patent US20230141569A1, “FLUORESCENT DYE, AND PREPARATION METHOD AND USES THEREOF” (FLUORESCENCE DIAGNOSIS (SHANGHAI) BIOTECH COMPANY LTD., priority 2020, published 2023).

What was measured:
RNA aptamer [1] = assay: Labeling intracellular RNA aptamer in cells (Test Example 4, FIG. 20A/20B); assay type: cell-based; settings: for fluorescence of cells expressing the RNA aptamer: FIG. 20A; for fluorescence of cells not expressing the RNA aptamer: FIG. 20B
From the text: FIGS. 20A and 20B are the application of molecular rotors IV-1, IV-2, IV-3, IV-4, IV-5, IV-6, IV-17, IV-18, IV-19, IV-20, IV-21, IV-22 in labeling intracellular RNA aptamer, wherein FIG. 20A are cells expressing the target RNA aptamer, and FIG. 20B are cells not expressing the target RNA aptamer;

[2] = Viscosity response: fluorescence in glycerin vs methanol (Test Example 1); assay type: physicochemical; settings: final concentration 1×10^−5 M; for Glycerin/Methanol Fluorescence Intensity Ratio: excited at maximum excitation wavelength of each dye; for Maximum Excitation Wavelength (nm): glycerin and methanol
RNA aptamer [3] = assay: Optical properties after binding to RNA aptamer (Test Example 4); assay type: biochemical; settings: for Em/nm / Ex/nm / ε / QY (−): after binding to RNA aptamer; for QY (−): relative method with Rhodamine 6G as the standard; for compound fluorescence after binding to RNA aptamer: excited at a suitable wavelength
[4] = Fluorescence emission at different viscosity conditions, diethanol-glycerol mixed solution (Test Example 2); assay type: physicochemical; settings: 1×10^−5 M, excited at 480 nm

SMILES	Glycerin/Methanol Fluorescence Intensity Ratio [2]	Maximum Excitation Wavelength (nm) [2]	further results
CN1C(=O)/C(=C/c2cc(F)c(O)c(F)c2)N=C1/C=C/c1ccc(C#N)cc1 [IV-1]	987	618 nm	fluorescence of cells expressing the RNA aptamer (RNA aptamer [1]): bright fluorescence; fluorescence of cells not expressing the RNA aptamer (RNA aptamer [1]): no fluorescence; Em/nm (RNA aptamer [3]): 618 nm; Ex/nm (RNA aptamer [3]): 510 nm; ε (RNA aptamer [3]): 20667 M⁻¹ cm⁻¹; QY (−) (RNA aptamer [3]): 0.17; compound fluorescence after binding to RNA aptamer (RNA aptamer [3]): noticeably activated; fluorescence intensity at different viscosity conditions [4]: gradually increasing fluorescence intensity
CN1C(=O)/C(=C/c2cc(F)c(O)c(F)c2)N=C1/C=C/c1cccc(C#N)c1 [IV-2]	687	595 nm	fluorescence of cells expressing the RNA aptamer (RNA aptamer [1]): bright fluorescence; fluorescence of cells not expressing the RNA aptamer (RNA aptamer [1]): no fluorescence; Em/nm (RNA aptamer [3]): 595 nm; Ex/nm (RNA aptamer [3]): 492 nm; ε (RNA aptamer [3]): 25000 M⁻¹ cm⁻¹; QY (−) (RNA aptamer [3]): 0.36; compound fluorescence after binding to RNA aptamer (RNA aptamer [3]): noticeably activated; fluorescence intensity at different viscosity conditions [4]: gradually increasing fluorescence intensity
CN1C(=O)/C(=C/c2cc(F)c(O)c(F)c2)N=C1/C=C/c1ccc(O)cc1 [IV-3]	951	565 nm	fluorescence of cells expressing the RNA aptamer (RNA aptamer [1]): bright fluorescence; fluorescence of cells not expressing the RNA aptamer (RNA aptamer [1]): no fluorescence; Em/nm (RNA aptamer [3]): 565 nm; Ex/nm (RNA aptamer [3]): 490 nm; ε (RNA aptamer [3]): 26000 M⁻¹ cm⁻¹; QY (−) (RNA aptamer [3]): 0.27; compound fluorescence after binding to RNA aptamer (RNA aptamer [3]): noticeably activated; fluorescence intensity at different viscosity conditions [4]: gradually increasing fluorescence intensity
CN1C(=S)/C(=C/c2cc(F)c(O)c(F)c2)N=C1/C=C/c1ccc(F)cc1 [IV-7]	873	570 nm	–
CN1C(=O)/C(=C/c2ccc(O)c(F)c2)N=C1/C=C/c1ccc(C#N)cc1 [IV-9]	697	615 nm	–
CCN1C(=O)/C(=C/c2cc(F)c(O)c(Cl)c2)N=C1/C=C/c1ccc(C#N)cc1 [IV-10]	779	620 nm	–
O=C1NC(/C=C/c2ccc(Br)cc2)=NC/1=C\c1cc(Cl)c(O)c(Cl)c1 [IV-16]	689	595 nm	–
CCCN1C(=S)/C(=C/c2ccc(N(C)C)nc2)N=C1/C=C/c1ccccc1F [IV-24]	934	551 nm	–
CCCCCCN(CCCCCC)c1cnc(/C=C2N=C(/C=C/c3cccc(Cl)c3)N(C)C\2=O)cn1 [IV-25]	918	591 nm	–
CCCN1C(=O)/C(=C/c2cc3c4c(c2)CCCN4CCC3)N=C1/C=C/c1ccc(C#N)cc1 [IV-27]	890	600 nm	–
CC1=CC(C)(C)N(C)c2ccc(/C=C3N=C(/C=C/c4ccc(C#N)cc4)N(C)C\3=O)cc21 [IV-33]	729	605 nm	–
C#CCOCCN(C)c1ccc(/C=C2N=C(/C=C/c3ccc(F)cc3)N(C)C\2=O)cc1 [IV-37]	801	580 nm	–
CN1C(=O)/C(=C/c2cnc3cc(N(C)C)ccc3c2)N=C1/C=C/c1cccc(C#N)c1 [IV-38]	529	705 nm	–

More lines, main results first:

Glycerin/Methanol Fluorescence Intensity Ratio [2]	Maximum Excitation Wavelength (nm) [2]	SMILES	further results
687	574 nm	CN1C(=O)/C(=C/c2cc(F)c(O)c(F)c2)N=C1/C=C/c1cccc(O)c1 [IV-4]	fluorescence of cells expressing the RNA aptamer (RNA aptamer [1]): bright fluorescence; fluorescence of cells not expressing the RNA aptamer (RNA aptamer [1]): no fluorescence; Em/nm (RNA aptamer [3]): 574 nm; Ex/nm (RNA aptamer [3]): 490 nm; ε (RNA aptamer [3]): 23333 M⁻¹ cm⁻¹; QY (−) (RNA aptamer [3]): 0.37; compound fluorescence after binding to RNA aptamer (RNA aptamer [3]): noticeably activated; fluorescence intensity at different viscosity conditions [4]: gradually increasing fluorescence intensity
861	570 nm	CN1C(=O)/C(=C/c2cc(F)c(O)c(F)c2)N=C1/C=C/c1ccc(F)cc1 [IV-5]	fluorescence of cells expressing the RNA aptamer (RNA aptamer [1]): bright fluorescence; fluorescence of cells not expressing the RNA aptamer (RNA aptamer [1]): no fluorescence; Em/nm (RNA aptamer [3]): 570 nm; Ex/nm (RNA aptamer [3]): 492 nm; ε (RNA aptamer [3]): 23000 M⁻¹ cm⁻¹; QY (−) (RNA aptamer [3]): 0.33; compound fluorescence after binding to RNA aptamer (RNA aptamer [3]): noticeably activated; fluorescence intensity at different viscosity conditions [4]: gradually increasing fluorescence intensity
861	638 nm	CN1C(=S)/C(=C/c2cc(F)c(O)c(F)c2)N=C1/C=C/c1ccc(C#N)cc1 [IV-8]	–
898	573 nm	CCCN1C(=O)/C(=C/c2cc(F)c(O)c(I)c2)N=C1/C=C/c1ccc(Cl)cc1 [IV-12]	–
711	590 nm	CN1C(=O)/C(=C/c2cc(Cl)c(O)c(Cl)c2)N=C1/C=C/c1ccc(Br)cc1 [IV-13]	–
699	585 nm	CCN1C(=O)/C(=C/c2ccc(O)c(Cl)c2)N=C1/C=C/c1ccc(I)cc1 [IV-14]	–
730	586 nm	CN1C(=O)/C(=C/c2ccc(O)c(Br)c2)N=C1/C=C/c1cccc(Cl)c1 [IV-15]	–
915	617 nm	C=CCOCCN(C)c1ccc(/C=C2N=C(/C=C/c3ccccc3C#N)N(C)C\2=S)cc1 [IV-23]	–
937	555 nm	CN1C(=O)/C(=C/c2cnc(N(C)CCC#N)nc2)N=C1/C=C/c1ccccc1I [IV-26]	–
942	620 nm	CN1C(=O)/C(=C/c2ccc(N(C)CCS(=O)(=O)O)cc2)N=C1/C=C/c1ccc(C#N)cc1 [IV-28]	–
829	618 nm	COCCOCCOCCOCC(=O)OCCN(C)c1ccc(/C=C2N=C(/C=C/c3ccc(C#N)cc3)N(C)C\2=O)cc1 [IV-29]	–
921	582 nm	COC(=O)CNCCN(C)c1ccc(/C=C2N=C(/C=C/c3ccc(Br)cc3)N(C)C\2=O)cc1 [IV-30]	–
902	581 nm	CN1C(=O)/C(=C/c2ccc(N(C)CCN)cc2)N=C1/C=C/c1cccc(F)c1 [IV-31]	–
999	580 nm	CN(C)CCN(C)c1ccc(/C=C2N=C(/C=C/c3cccc(F)c3)N(C)C\2=O)cc1 [IV-32]	–
810	603 nm	CN1C(=O)/C(=C/c2ccc3c(c2)OCCN3C)N=C1/C=C/c1ccc(F)cc1 [IV-34]	–
776	561 nm	CN1C(=O)/C(=C/c2ccc(N)cc2)N=C1/C=C/c1ccc(C#N)cc1 [IV-35]	–
792	690 nm	CN1C(=O)/C(=C/c2ccc3cc(N(C)CCO)ccc3c2)N=C1/C=C/c1cccc(O)c1 [IV-36]	–
